Measurements published in patent publication US8343475B2, “Small cationic antimicrobial peptides” (priority 2006, dated 2013).
Residues, ends and D or L forms follow the SMILES beside them.

Experiments:
human PBMC = test: Adjuvant properties: cytokine/chemokine induction by peptides alone and with CpG oligonucleotides and polyphosphazene P6; type: cell-based; settings: peptide alone 20 ug/mL, background subtracted
Protocol: Venous blood (20 ml) from healthy volunteers was collected in Vacutainer® collection tubes containing sodium heparin as an anticoagulant (Becton Dickinson, Mississauga, ON) in accordance with UBC ethical approval and guidelines. Blood was diluted 1:1 with complete RPMI 1640 medium and separated by centrifugation over a Ficoll-Paque® Plus (Amersham Biosciences, Piscataway, N.J., USA) density gradient. White blood cells were isolated from the buffy coat, washed twice in RPMI 1640 complete medium, and the number of peripheral blood mononuclear cells (PBMC) was determined by trypan blue exclusion. PBMC (5×10^5) were seeded into 12-well tissue culture dishes (Falcon; Becton Dickinson) at 0.75 to 1×10^6 cells/ml at 37° C. in 5% CO2. The above conditions were chosen to mimic conditions for circulating blood monocytes entering tissues at the site of infection via extravasation.
Following incubation of the cells under various treatment regimens, the tissue culture supernatants were centrifuged at 1000×g for 5 min, then at 10,000×g for 2 min to obtain cell-free samples. Supernatants were aliquoted and then stored at −20° C. prior to assay for various chemokines by capture ELISA (eBioscience and BioSource International Inc., CA, USA respectively)
(§1) It is well accepted that vaccine immunization is best achieved by co-administration of an adjuvant. The precise mechanism by which these adjuvants work has eluded immunologists but appears to work in part by upregulating elements of innate immunity that smooth the transition to adaptive (antigen-specific) immunity (Bendelac A and R. Medzhitov. 2002. Adjuvants of immunity: Harnessing innate immunity to promote adaptive immunity J. Exp. Med. 195:F19-F23). Within this concept there are several possible avenues by which adjuvants might work including the attraction of immune cells into the site at which a particular antigen is injected, through e.g., upregulation of chemokines, the appropriate activation of cells when they reach that site, which can be caused by local cell or tissue damage releasing endogenous adjuvants or through specific cell activation by the adjuvants, and the compartmentalization of immune responses to the site of immunization (the so-called “depot” effect). […] Therefore we studies the ability of our small host defence peptides to upregulate adjuvant responses in both human PBMC and cord blood mononuclear cells (CBMC) (representing the responses of blood cells from neonates), both alone (Table 10 and 11) and in combination with other proposed adjuvant agents that might work through other mechanisms such as CpG oligodeoxy ribonucleotides (TLR9 agionists that activate cells through interaction with TLR9 and fit into 3 different classes A=molecule 2336, B=10103 and C=2395), and polyphosphazene P6 (which induces a depot effect).

[1] = tested on: MCP-1 release by human PBMC; test: Chemokine induction in PBMC (capture ELISA); type: cell-based; settings: for Chemokine induction MCP-1: background (204) subtracted
Summary of the method: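 Heparinized blood from healthy volunteers; Ficoll-isolated human PBMC (7.5×10^5) treated with peptides at 20 or 100 μg/ml for 24 hours at 37° C, 5% CO2. Cell-free supernatants assayed for MCP-1 by capture ELISA.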

[2] = tested on: MCP-3 release by human PBMC; test: Chemokine induction in PBMC (capture ELISA); type: cell-based; settings: background (6) subtracted
Summary of the method: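 Human PBMC from healthy donors (Ficoll-isolated), 7.5×10^5 cells at 0.75–1×10^6 cells/ml, treated with peptides at 20 or 100 μg/ml for 24 h at 37° C, 5% CO2. MCP-3 in cell-free supernatants measured by capture ELISA.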

[3] = tested on: cord blood mononuclear cells (CBMC); test: Adjuvant properties: cytokine/chemokine induction by peptides alone and with CpG oligonucleotides and polyphosphazene P6; type: cell-based, human; settings: peptide alone 20 ug/mL, background subtracted
Source text: as §1

## CC[C@H](C)[C@H](N)C(=O)N[C@@H](Cc1c[nH]c2ccccc12)C(=O)N[C@H](C(=O)N[C@H](C(=O)N[C@@H](Cc1c[nH]c2ccccc12)C(=O)N[C@@H](CCCNC(=N)N)C(=O)N[C@@H](CCCNC(=N)N)C(N)=O)[C@@H](C)CC)C(C)C [HH18, IWVIWRR-NH2] (H-IWVIWRR-NH2; N-terminus assumed)
Human PBMC
  Cytokines induced: Gro-α: 143 pg/mL
  Cytokines induced: IL-6: 180 pg/mL
  Cytokines induced: IL-8: 2558 pg/mL
  Cytokines induced: MCP-1: 64 pg/mL
  Cytokines induced: MCP-3: 3 pg/mL
  Cytokines induced: TNF-α: 56 pg/mL
[1]; 20 μg/ml peptide
  Chemokine induction MCP-1: 1111 pg/mL
[1]; 100 μg/ml peptide
  Chemokine induction MCP-1: 9608 pg/mL
[1]; 20 or 100 μg/ml peptide, 24 hours (FIG. 15)
  induction of MCP1: induced
[2]; 20 μg/ml peptide
  Chemokine induction MCP-3: 32 pg/mL
[2]; 100 μg/ml peptide
  Chemokine induction MCP-3: 431 pg/mL
[3]
  Cytokines induced: Gro-α: 55 pg/mL
  Cytokines induced: IL-6: 7 pg/mL
  Cytokines induced: IL-8: 372 pg/mL
  Cytokines induced: MCP-1: 54 pg/mL
  Cytokines induced: MCP-3: -24 pg/mL
  Cytokines induced: TNF-α: -4 pg/mL
